The text below walks through data of patent publication US10829473B2, “Modulators of the cystic fibrosis transmembrane conductance regulator protein and methods of use” (AbbVie Overseas S.Á.R.L., priority 2017, dated 2020).

In the assay the target is T1, F508delCFTR (Homo sapiens, UniProt P13569, DEL508-508).
T1 construct: expressed in transfected cells; host or cells: CFBE41o- human lung derived epithelial cells (CFBE41o-F508delCFTR-HRP), doxycycline-inducible
The assay is described as follows: Cell Surface Expression-Horse Radish Peroxidase (CSE-HRP) Assay.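 For EC50 (with co-corrector): co-corrector chromenyl benzoic acid corrector at 2 or 3 µM.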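 For Maximum % activity (without co-corrector): % of on-plate positive control chromenyl benzoic acid corrector at 2 or 3 µM.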 Conditions: for Maximum % activity (with co-corrector) / Emax: maximum at any tested concentration; for Emax: read-out: Maximum % activity (without co-corrector). The class given is cell-based. The method in brief:
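Corrector compounds were given as 8-point 3-fold series from 20 or 30 μM, with or without a 2 μM co-corrector, for 18-24 h at 33 °C. Surface HRP was read by luminol luminescence as % of positive control; variable-Hill-slope sigmoidal fitting gave EC50 from triplicate plates.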

Where [1] appears, read: test compound alone, without co-corrector, read-out: EC50 (without co-corrector).
Where [2] appears, read: with co-corrector, read-out: EC50 (with co-corrector).
The mark [3] stands for this setting: test compound with co-corrector.
[4] abbreviates: test compound with co-corrector, read-out: EC50 (with co-corrector).
[5] abbreviates: test compound without co-corrector.
The mark [6] stands for this setting: test compound without co-corrector, read-out: EC50 (without co-corrector).

Read-outs that look alike come from different tables or passages of the source. Marks after values point to notes of the source that are not given here.

T1 sequence (P13569 with tags, fused parts or gaps DEL508-508): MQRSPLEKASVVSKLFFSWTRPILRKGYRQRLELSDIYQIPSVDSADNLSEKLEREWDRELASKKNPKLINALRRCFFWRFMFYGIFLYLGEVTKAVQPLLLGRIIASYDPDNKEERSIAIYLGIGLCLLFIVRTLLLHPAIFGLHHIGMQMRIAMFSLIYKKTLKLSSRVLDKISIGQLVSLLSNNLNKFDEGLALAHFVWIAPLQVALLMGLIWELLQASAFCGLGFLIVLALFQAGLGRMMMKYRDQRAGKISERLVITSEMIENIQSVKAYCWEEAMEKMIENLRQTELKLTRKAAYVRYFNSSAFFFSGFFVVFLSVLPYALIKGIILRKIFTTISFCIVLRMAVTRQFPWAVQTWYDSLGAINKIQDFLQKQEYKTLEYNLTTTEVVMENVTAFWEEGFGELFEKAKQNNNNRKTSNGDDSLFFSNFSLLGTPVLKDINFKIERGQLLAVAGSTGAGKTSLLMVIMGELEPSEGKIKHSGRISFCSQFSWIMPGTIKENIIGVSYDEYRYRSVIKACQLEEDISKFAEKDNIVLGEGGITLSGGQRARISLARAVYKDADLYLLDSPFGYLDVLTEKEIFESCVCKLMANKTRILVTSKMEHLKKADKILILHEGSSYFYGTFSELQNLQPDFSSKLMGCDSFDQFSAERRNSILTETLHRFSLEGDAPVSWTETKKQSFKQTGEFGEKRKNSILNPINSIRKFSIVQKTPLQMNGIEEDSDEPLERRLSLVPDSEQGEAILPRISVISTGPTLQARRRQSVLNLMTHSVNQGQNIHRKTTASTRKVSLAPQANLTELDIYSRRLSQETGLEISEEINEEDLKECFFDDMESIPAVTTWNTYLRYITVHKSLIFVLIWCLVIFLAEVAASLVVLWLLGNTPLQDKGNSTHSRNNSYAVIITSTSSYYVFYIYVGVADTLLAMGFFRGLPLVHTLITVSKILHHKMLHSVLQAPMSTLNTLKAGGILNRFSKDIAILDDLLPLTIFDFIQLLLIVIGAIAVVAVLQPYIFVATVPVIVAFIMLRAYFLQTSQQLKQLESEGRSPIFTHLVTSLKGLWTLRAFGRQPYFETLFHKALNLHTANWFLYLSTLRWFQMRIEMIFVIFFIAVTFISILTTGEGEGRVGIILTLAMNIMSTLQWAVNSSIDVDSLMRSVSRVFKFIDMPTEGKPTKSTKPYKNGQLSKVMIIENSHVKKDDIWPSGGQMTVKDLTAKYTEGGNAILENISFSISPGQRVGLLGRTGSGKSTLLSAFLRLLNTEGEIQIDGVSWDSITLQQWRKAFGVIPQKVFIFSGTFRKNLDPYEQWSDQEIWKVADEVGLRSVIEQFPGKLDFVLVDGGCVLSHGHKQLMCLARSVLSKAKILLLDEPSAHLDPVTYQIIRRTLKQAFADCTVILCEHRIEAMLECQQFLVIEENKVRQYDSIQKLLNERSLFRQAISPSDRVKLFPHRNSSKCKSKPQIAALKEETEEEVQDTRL

For the compound `CCOc1cccc(OC)c1C1(C(=O)NS(=O)(=O)c2cccc3ncccc23)CC1` [Example I-45, 1-(2-ethoxy-6-methoxyphenyl)-N-(quinoline-5-sulfonyl)cyclopropane-1-carboxamide], the EC50 (usually the concentration needed to bring the measured effect to its halfway point) is below 3 µM under setting [1] and below 3 µM under setting [2]. Where the note is “with co-corrector”, the “Maximum % activity (with co-corrector)” value was “+++ (≥350)”. Where the note is “without co-corrector”, the Emax is above 150%.

In the case of `COc1cnc(N2CCCC2)c(C2(C(=O)NS(=O)(=O)c3cccc4ncccc34)CC2)c1` [GII-40, 1-[5-methoxy-2-(pyrrolidin-1-yl)pyridin-3-yl]-N-(quinoline-5-sulfonyl)cyclopropane-1-carboxamide], under setting [3], the “Maximum % activity (with co-corrector)” value is given as “+++ (≥350)”. In addition, the EC50 fell in the range of 3 to 10 µM under setting [4] and 3 to 10 µM under setting [6]. In addition, the Emax under setting [5] was above 150%.

For the compound `O=C(NS(=O)(=O)Cc1ccccc1)C1(c2cccc(Cl)c2)CC1` [Example III-109, 1-(3-chlorophenyl)-N-(phenylmethanesulfonyl)cyclopropane-1-carboxamide], the half-maximal effective concentration (EC50) by setting is: under setting [1], above 10 µM; under setting [2], above 10 µM. Moreover, the “Maximum % activity (with co-corrector)” value (with co-corrector) is reported as “+ (<150)”. Also, under “without co-corrector”, the Emax was below 50%.

Regarding `O=C(NS(=O)(=O)c1cccc2ncccc12)C1(c2ccc(C(F)(F)F)nc2Cl)CC1` [GIII-29], the “Maximum % activity (with co-corrector)” value under setting [3] was “+ (<150)”. Moreover, the EC50 was above 10 µM under setting [4] and above 10 µM under setting [6]. Also, the Emax under setting [5] is below 50%.

For the compound `Cc1ccc2c(S(=O)(=O)NC(=O)C3(c4cc(C5CCC5)cnc4OCC(C)C)CC3)cccc2n1` [Example GI-53, 1-[5-cyclobutyl-2-(2-methylpropoxy)pyridin-3-yl]-N-(2-methylquinoline-5-sulfonyl)cyclopropane-1-carboxamide], the “Maximum % activity (with co-corrector)” value under setting [3] was “+++ (≥350)”. Moreover, the EC50 was below 3 µM under setting [4] and below 3 µM under setting [6]. Besides, the Emax under setting [5] is above 150%.

For `CC(C)COc1ccc(OC(C)C)c(C2(C(=O)NS(=O)(=O)c3cccc4[nH]ccc34)CC2)n1` [Example GI-89, N-(1H-indole-4-sulfonyl)-1-{6-(2-methylpropoxy)-3-[(propan-2-yl)oxy]pyridin-2-yl}cyclopropane-1-carboxamide], the “Maximum % activity (with co-corrector)” value under setting [3] was “+++ (≥350)”. The EC50 under setting [4] is below 3 µM and the EC50 under setting [6] was below 3 µM. For the same compound, the Emax under setting [5] is above 150%.

Take `COc1ccc(C2COC2)cc1C1(C(=O)NS(=O)(=O)c2cccc3ncccc23)CC1` [Example I-90, 1-[2-methoxy-5-(oxetan-3-yl)phenyl]-N-(quinoline-5-sulfonyl)cyclopropane-1-carboxamide]: the EC50 runs as follows: under setting [1], 3 to 10 µM; under setting [2], 3 to 10 µM. The “Maximum % activity (with co-corrector)” value (with co-corrector) is recorded as “+++ (≥350)”. In addition, the Emax (without co-corrector) is 50 to 150%.

For the compound `COc1cccc(C)c1C1(C(=O)NS(=O)(=O)c2cccc3c2CCCN3)CC1` [II-53], the EC50 runs as follows: under setting [1], 3 to 10 µM; under setting [2], below 3 µM. Further, the “Maximum % activity (with co-corrector)” value (with co-corrector) is reported as “+++ (≥350)”. Besides, the Emax (without co-corrector) was above 150%.

As to `COc1ccc(C)nc1C1(C(=O)NS(=O)(=O)c2cccc3ncccc23)CC1` [Example III-124, 1-(3-methoxy-6-methylpyridin-2-yl)-N-(quinoline-5-sulfonyl)cyclopropane-1-carboxamide], the EC50 lay in the range of 3 to 10 µM under setting [1] and 3 to 10 µM under setting [2]. The “Maximum % activity (with co-corrector)” value (with co-corrector) was “+++ (≥350)”. Further, for the setting “without co-corrector”, the Emax was in the range of 50 to 150%.

With `CN(C)c1ncc(C(F)(F)F)cc1C1(C(=O)NS(=O)(=O)c2cccc3ccccc23)CC1` [Example I-30, 1-[2-(dimethylamino)-5-(trifluoromethyl)pyridin-3-yl]-N-(naphthalene-1-sulfonyl)cyclopropane-1-carboxamide], the EC50 by setting is: under setting [1], below 3 µM; under setting [2], below 3 µM. Further, the “Maximum % activity (with co-corrector)” value (with co-corrector) is on record as “+++ (≥350)”. Under “without co-corrector”, the Emax is above 150%.

In the case of `CC(C)Oc1ncc(N2CCC2)cc1C1(C(=O)NS(=O)(=O)c2cccc3[nH]ccc23)CC1` [Example GI-85, 1-{5-(azetidin-1-yl)-2-[(propan-2-yl)oxy]pyridin-3-yl}-N-(1H-indole-4-sulfonyl)cyclopropane-1-carboxamide], the “Maximum % activity (with co-corrector)” value under setting [3] is reported as “+++ (≥350)”. For the same compound, the EC50 reads like this: under setting [4], below 3 µM; under setting [6], 3 to 10 µM. Under setting [5], the Emax is above 150%.

For `COc1ccc(C2CCC2)cc1C1(C(=O)NS(=O)(=O)c2cccc3ccccc23)CC1` [Example I-2, 1-(5-cyclobutyl-2-methoxyphenyl)-N-(naphthalene-1-sulfonyl)cyclopropane-1-carboxamide], the EC50 by setting is: under setting [1], below 3 µM; under setting [2], below 3 µM. Moreover, for the setting “with co-corrector”, the “Maximum % activity (with co-corrector)” value is given as “+++ (≥350)”. Further, the Emax (without co-corrector) was above 150%.

For the compound `CCc1cccc(OC)c1C1(C(=O)NS(=O)(=O)c2cccc3[nH]ncc23)CC1` [Example III-132, 1-(2-ethyl-6-methoxyphenyl)-N-(lH-indazole-4-sulfonyl)cyclopropane-1-carboxamide], the EC50 runs as follows: under setting [1], below 3 µM; under setting [2], below 3 µM. The “Maximum % activity (with co-corrector)” value (with co-corrector) was “+++ (≥350)”. The Emax (without co-corrector) is above 150%.

For `COc1nc2ccccc2cc1C1(C(=O)NS(=O)(=O)c2cccc3nc(C)ccc23)CC1` [Example I-75, 1-(2-methoxyquinolin-3-yl)-N-(2-methylquinoline-5-sulfonyl)cyclopropane-1-carboxamide], the 50% effective concentration (EC50) under setting [1] fell in the range of 3 to 10 µM and the EC50 under setting [2] is below 3 µM. Besides, the “Maximum % activity (with co-corrector)” value (with co-corrector) is listed as “+++ (≥350)”. In addition, the Emax (without co-corrector) was above 150%.

On to `CCc1ccc(OC(C)C)c(C2(C(=O)NS(=O)(=O)c3cccc4nc(C)ccc34)CC2)n1` [Example GI-54, 1-{6-ethyl-3-[(propan-2-yl)oxy]pyridin-2-yl}-N-(2-methylquinoline-5-sulfonyl)cyclopropane-1-carboxamide], for which the “Maximum % activity (with co-corrector)” value under setting [3] was “+++ (≥350)”. Also, the EC50 is, setting by setting: under setting [4], 3 to 10 µM; under setting [6], 3 to 10 µM. For the same compound, the Emax under setting [5] is above 150%.

In the case of `CCc1cnc(N2CCCC2)c(C2(C(=O)NS(=O)(=O)c3cccc4nc(C)ccc34)CC2)c1` [GII-31, 1-[5-ethyl-2-(pyrrolidin-1-yl)pyridin-3-yl]-N-(2-methylquinoline-5-sulfonyl)cyclopropane-1-carboxamide], the “Maximum % activity (with co-corrector)” value under setting [3] was “+++ (≥350)”. The EC50 lay in the range of 3 to 10 µM under setting [4] and 3 to 10 µM under setting [6]. Further, under setting [5], the Emax is above 150%.

As for `COc1ccc(C2CC2)cc1C1(C(=O)NS(=O)(=O)c2cccc3nc(C)ccc23)CC1` [Example I-68, 1-(5-cyclopropyl-2-methoxyphenyl)-N-(2-methylquinoline-5-sulfonyl)cyclopropane-1-carboxamide], the EC50 is, setting by setting: under setting [1], below 3 µM; under setting [2], below 3 µM.

As to `COc1ccc(C2(C(=O)NS(=O)(=O)c3cccc4ccccc34)CCC2)cc1OC` [Example III-121, 1-(3,4-dimethoxyphenyl)-N-(naphthalene-1-sulfonyl)cyclobutane-1-carboxamide], the EC50 under setting [1] was above 10 µM and the EC50 under setting [2] was above 10 µM. For the setting “with co-corrector”, the “Maximum % activity (with co-corrector)” value is given as “+ (<150)”. Further, the Emax (without co-corrector) was below 50%.

As for `COc1cc(C)c(C2(C(=O)NS(=O)(=O)c3cccc4c3CCCN4)CC2)cn1` [GIII-17], under setting [3], the “EC50 (with co-corrector)” value is given as “++^a”; the “Maximum % activity (with co-corrector)” value is “++ (≥150 and <350)”. Also, under setting [5], the “EC50 (without co-corrector)” value was “++^a” and the Emax is 50 to 150%.

On to `COc1ccc(C(F)(F)F)cc1C1(C(=O)NS(=O)(=O)c2cccc3ncccc23)CC1` [Example I-37, 1-[2-methoxy-5-(trifluoromethyl)phenyl]-N-(quinoline-5-sulfonyl)cyclopropane-1-carboxamide], for which the EC50 is, setting by setting: under setting [1], below 3 µM; under setting [2], below 3 µM. In addition, the “Maximum % activity (with co-corrector)” value (with co-corrector) is listed as “+++ (≥350)”. For the setting “without co-corrector”, the Emax was above 150%.

Turning to `CN(C)c1cccc2c(S(=O)(=O)NC(=O)C3(c4cccc(Cl)c4)CC3)cccc12` [Example III-58, 1-(3-chlorophenyl)-N-[5-(dimethylamino)naphthalene-1-sulfonyl]cyclopropane-1-carboxamide], the EC50 is, setting by setting: under setting [1], above 10 µM; under setting [2], 3 to 10 µM. Also, the “Maximum % activity (with co-corrector)” value (with co-corrector) was “++ (≥150 and <350)”. Also, the Emax (without co-corrector) was below 50%.

Turning to `COc1ncc(C2CCC2)c(C)c1C1(C(=O)NS(=O)(=O)c2cccc3ccn(C)c23)CC1` [II-42], the EC50 reads like this: under setting [1], 3 to 10 µM; under setting [2], below 3 µM. For the same compound, the “Maximum % activity (with co-corrector)” value (with co-corrector) was “+++ (≥350)”. In addition, for the setting “without co-corrector”, the Emax was 50 to 150%.

Consider `COc1ccc(C2CC2)c(C)c1C1(C(=O)NS(=O)(=O)c2cccc3[nH]ncc23)CC1` [II-78], for which the half-maximal effective concentration (EC50) under setting [1] was below 3 µM and the EC50 under setting [2] is below 3 µM. The “Maximum % activity (with co-corrector)” value (with co-corrector) is on record as “+++ (≥350)”. Also, the Emax (without co-corrector) was above 150%.

Take `COc1ncc(C(F)(F)F)cc1C1(C(=O)NS(=O)(=O)c2cccc3c2CCCN3)CC1` [II-8]: the EC50 reads like this: under setting [1], 3 to 10 µM; under setting [2], below 3 µM. Besides, the “Maximum % activity (with co-corrector)” value (with co-corrector) is reported as “+++ (≥350)”. Besides, the Emax (without co-corrector) is above 150%.

As to `O=C(NS(=O)(=O)C(F)(F)F)C1(c2ccc(Cl)cc2Cl)CC1` [Example III-105, 1-(2,4-dichlorophenyl)-N-(trifluoromethanesulfonyl)cyclopropane-1-carboxamide], the EC50 under setting [1] was above 10 µM and the EC50 under setting [2] is above 10 µM. For the same compound, the “Maximum % activity (with co-corrector)” value (with co-corrector) was “+ (<150)”. In addition, where the note is “without co-corrector”, the Emax was below 50%.
